# Measured values reported in paper PMC12439338, “Designer amphiphilic helical peptide-decorated nanomicelles enable simultaneous inflammation control and triple-destruction of bacteria for treating bacterial pneumonia and sepsis” (Theranostics, 2025).
# Where a SMILES comes first, the peptide text is derived from it.
# Assays:
# [1] = right after preparation and overnight storage
# [2] = test system: bacteria-induced sepsis mouse models; details: cited from earlier work
# Text: The gene expressions of TLR2 and TLR4 in these patients were also correlated with that of the inflammatory cytokine IL1B (Figure S1C-F). These analyses together with reported literatures indeed confirmed the TLR2 and TLR4 up-regulation as a strong pathogenic factor in sepsis patients. Moreover, studies have shown that TLR4 knockout mice ...
# LPS / TLR4 = test system: LPS / TLR4; parameters: method as in 3 sources, ref 25 = [25]; PMID 34183393; doi:10.1073/pnas.2101721118; 25 Schromm AB Paulowski L Kaconis Y Kopp F Koistinen M Donoghue A Cathelicidin and PMB neutralize endotoxins by multifactorial mechanisms including LPS interaction and targeting of host cell membranes ||| ref 18, 19 = [18]; PMID 17237433; doi:10.4049/jimmunol.178.3.1829; 18 Di Nardo A Braff MH Taylor KR Na C Granstein RD McInturff JE Cathelicidin antimicrobial peptides block dendritic cell TLR4 activation and allergic contact sensitization J Immunol 2007 178 1829 34 1 || [19]; PMID 32582207; doi:10.3389/fimmu.2020.01137; 19 Scheenstra MR van Harten RM Veldhuizen EJA Haagsman HP Coorens M Cathelicidins modulate TLR-activation and inflammation Front Immunol 2020 11 1137 32582207 10.3389/fimmu.2020.01137 PMC7296178 ||| ref 44 = [44]; PMID 31364070; doi:10.1007/978-3-030-16373-0_4; 44 Li Z Velkov T Polymyxins: mode of action Adv Exp Med Biol 2019 1145 37 54 31364070 10.1007/978-3-030-16373-0_4; details: cited from earlier work
# Text: Bioactive peptides are functional biopolymers that can be de novo designed or derived from nature with immunoregulatory and antimicrobial activities. For example, naturally existed antimicrobial peptides (AMPs) are key players in the host-defense mechanism against the invasion of various pathogens including bacteria, fungi, viruses and parasites, [17], through the disruption of microorganism membranes. This working mechanism makes AMPs more advantageous over traditional antibiotics due to less chance for the development of drug resistance. In addition to elimination of microbes, some AMPs ... || Polymyxin B (PMB), a cationic cyclic peptide, is one of the last-line antibiotics to treat drug-resistant bacterial infection in the clinic. […] To assess the potency of our newly designed R18, we made the head-to-head comparison between R18 and polymyxin B on their TLR4 and TLR2 inhibitory activities.
# TLR4/MD-2 complex = test system: TLR4/MD-2 complex; parameters: method as in PMID 35238667; details: cited from earlier work
# [3] = test system: TLR4 signaling (LPS-induced NF-κB/AP-1 and IRF activation) in THP-1 reporter cell-derived macrophages; test: NF-κB/AP-1 and IRF reporter assay, LPS (TLR4); type: cell-based, human
# Experimental: (§1) Cell culture. THP-1 cells were cultured in the RPMI 1640 complete medium supplemented with 10% FBS, 2 mM L-glutamine, and 1 mM sodium pyruvate, in a cell incubator containing 5% CO2 at 37°C. Zeocin (200 μg/mL or 100 μg/mL) was added to the complete medium as the selection pressure for THP-1-XBlue or THP-1-ISG reporter cells. Cells were seeded into a 96-well plate (1×10^5 cells/well) or a 24-well plate (5×10^5 cells/well), and differentiated into macrophages with PMA (50 ng/mL) for 24 h. […] The culture medium supernatants and cell lysates were collected for further analysis.
# (§2) NF-κB/AP-1 and IRF reporter assay. THP-1-XBlue and THP-1-ISG reporter cells were used to assess the activation of NF-κB/AP-1 and IRF, respectively. After treatments, the culture medium (20 μL per well) was collected and mixed with the Quanti-Blue solution (180 μL) in a clean 96-well plate, which was incubated for 1-2 h at 37°C until the solution color turned into dark purple. The solution absorption at 655 nm was acquired on a microplate reader (TECAN, Mannedorf, Zurich, Switzerland).
# [4] = test system: TLR2 signaling (Pam3CSK4-induced NF-κB/AP-1 activation) in THP-1 reporter cell-derived macrophages; test: NF-κB/AP-1 reporter assay, Pam3CSK4 (TLR2); type: cell-based, human; details: 2.5, 5 and 10 μM, Pam3CSK4 10 ng/mL, co-treatment, N = 3
# Experimental: as §1, §2
# [5] = cited from earlier work
# Text: (§3) The fast-increasing cases of sepsis or pneumonia caused by multidrug-resistant Gram-negative bacteria in the clinics have become a global health emergency, [30]. Currently, the peptide-based polymyxin B is the last line of antibiotics to fight multidrug-resistant Gram-negative bacteria. […] Th ...
# [6] = test system: Gram-positive bacterial infection; details: cited from earlier work
# Text: as §3
compound,measurement,setting,value
CC(C)C[C@H](NC(=O)[C@H](CC(C)C)NC(=O)[C@H](CCCNC(=N)N)NC(=O)[C@H](Cc1c[nH]c2ccccc12)NC(=O)[C@H](CC(C)C)NC(=O)[C@H](CCCNC(=N)N)NC(=O)[C@H](CCCNC(=N)N)NC(=O)[C@H](Cc1c[nH]c2ccccc12)NC(=O)[C@H](CC(C)C)NC(=O)[C@H](CCCNC(=N)N)NC(=O)[C@H](CC(C)C)NC(=O)[C@H](Cc1c[nH]c2ccccc12)NC(=O)[C@H](CCCNC(=N)N)NC(=O)[C@H](CCCNC(=N)N)NC(=O)[C@H](CC(C)C)NC(=O)[C@H](Cc1c[nH]c2ccccc12)NC(=O)[C@@H](N)CCCNC(=N)N)C(=O)N[C@@H](CCCNC(=N)N)C(N)=O [R18] (H-RWLRRWLRLWRRLWRLLR-NH2),stability and dispersibility in PBS,[1],tended to form milky colloidal suspensions and precipitate overnight
CCOC(=O)C1=CCCC[C@H]1S(=O)(=O)Nc1ccc(F)cc1Cl [TAK-242],disease severity in sepsis mouse models,[2],successfully reduced the disease severity in bacteria-induced sepsis mouse models
LL-37: human host-defense peptide cathelicidin,modulation of TLR4-triggered responses via LPS binding,LPS / TLR4,capable of modulating TLR4-triggered inflammatory responses
papiliocin,binding to TLR4/MD-2,TLR4/MD-2 complex,directly bind to the TLR4/MD-2 complex in order to block LPS-TLR4 interactions
polymyxin B,inhibition of LPS-induced NF-κB/AP-1 and IRF activation,[3],able to effectively inhibit LPS-induced activation
same,inhibition of Pam3CSK4-induced NF-κB/AP-1 activation,[4],had no effect on TLR2 inhibition
same,TLR4-mediated inflammation inhibition by antagonizing LPS,LPS / TLR4,capable of inhibiting TLR4-mediated inflammatory responses by antagonizing LPS
same,TLR4 antagonism by LPS neutralization,LPS / TLR4,TLR4 antagonist by neutralizing the bacterial product LPS
same,clinical toxicity,[5],has neurotoxicity and often causes some serious kidney problems
same,effectiveness against Gram-positive bacterial infection and inflammation,[6],not effective against Gram-positive bacterial infection and the associated inflammation
